Experiment: Hygroscopicity / storage stability: weight change on storage at 40° C. and 75% relative humidity
Format: physicochemical
Details: for Weight change with the elapse of time (in words): storage 0-4 hours at 40° C.
Experimental: 1 g of the crystal of glutathione trisulfide dihydrate produced in Example 2 was dissolved in water, and the volume was made up to 100 mL. The aqueous solution was filtered with a 0.45 μm of filter and then lyophilized to obtain a whitish transparent powder.
Subsequently, hygroscopicity of the obtained non-crystalline amorphous form of glutathione trisulfide and the crystal of glutathione trisulfide dihydrate produced in Example 2 was compared.
About 100 mg of each sample was weighed with a precise balance and then filled in a glass container, and after storage in THE051A (manufactured by Advantec Toyo Kaisha, Ltd.) under conditions of 40° C. and 75% relative humidity, the sample was weighed again to calculate a weight change rate. The sample weight after each elapsed time was measured with respect to 100% weight at the start of test.

[1] = as compared with the non-crystalline amorphous form, 40° C.

N[C@@H](CCC(=O)N[C@@H](CSSSC[C@H](NC(=O)CC[C@H](N)C(=O)O)C(=O)NCC(=O)O)C(=O)NCC(=O)O)C(=O)O.O.O [crystal of dehydrate, glutathione trisulfide dihydrate]
Hygroscopicity (in words) [1]: low hygroscopicity
Storage stability (in words) [1]: excellent storage stability
Sample weight with respect to 100% weight at the start of test (elapsed time 0 hour, 40° C.): 100.0%
Sample weight with respect to 100% weight at the start of test (elapsed time 0.5 hour, 40° C.): 100.0%
Sample weight with respect to 100% weight at the start of test (elapsed time 1 hour, 40° C.): 100.0%
Sample weight with respect to 100% weight at the start of test (elapsed time 2 hours, 40° C.): 100.0%
Sample weight with respect to 100% weight at the start of test (elapsed time 4 hours, 40° C.): 100.0%
Weight change with the elapse of time (in words): almost not changed

N[C@@H](CCC(=O)N[C@@H](CSSSC[C@H](NC(=O)CC[C@H](N)C(=O)O)C(=O)NCC(=O)O)C(=O)NCC(=O)O)C(=O)O [non-crystalline amorphous form, glutathione trisulfide]
Sample weight with respect to 100% weight at the start of test (elapsed time 0 hour, 40° C.): 100.0%
Sample weight with respect to 100% weight at the start of test (elapsed time 0.5 hour, 40° C.): 106.7%
Sample weight with respect to 100% weight at the start of test (elapsed time 1 hour, 40° C.): 107.7%
Sample weight with respect to 100% weight at the start of test (elapsed time 2 hours, 40° C.): 108.7%
Sample weight with respect to 100% weight at the start of test (elapsed time 4 hours, 40° C.): 108.7%
Weight change with the elapse of time (in words): increases with the elapse of time

From patent US11186610B2, “Crystal of glutathione trisulfide dihydrate and method for producing same” (KYOWA HAKKO BIO CO., LTD., priority 2016, dated 2021)
